From patent publication US11059800B2, “Dehydroleucodine derivatives and uses thereof” (Bioventures, LLC, priority 2013, dated 2021) come the findings set out here.

Holding throughout (type): cell-based
For experiment [1], the system named is HMOX-1, HSPA1A, HSPH1. Description: Real-time PCR gene expression in KG-1 and MOLM-13 cells. The settings on record: 20 μM, 6 hours. The text has this:
FIG. 1A, FIG. 1B, FIG. 1C, FIG. 1D and FIG. 1E present the changes in gene expression in KG1 or MOLM13 cells after exposure to dehydroleucodine, parthenolide, or derivatives thereof. Plotted is the fold change in expression relative to control after treatment with parthenolide-tyramine (PTL-Tyr), parthenolide (PTL), leucodine (Leuco), dehydroleucodine (DHL), dehydroleucodine-tyramine (DHL-Tyr), or dehydroleucodine-morpholine (DHL-Morp). […] FIG. 1B plots the expression of HSPA1A in KG1 cells. FIG. 1C presents the expression of HSPH1 in KG1 cells. […] FIG. 1E presents the expression of HSPH1 in MOLM13 cells. Error bars represent S.E.M.
MOLM-13 and KG-1 cells were seeded at 0.5 million cells per ml. Cells were treated for 6 hours with 20 μM of parthenolide (PTL), dehydroleucodine (DHL), leucodine (Leu), parthenolide-tyramine (PTL-Tyr), dehydroleucodine-tyramine (DHL-Tyr) and dehydroleucodine-Morpholine (DHL-Morp), and then collected. Total RNA was extracted using the Qiashredder and Qiagen Rneasy mini kits (Quiagen) according to the manufacturer's instructions. Real-time PCR was performed using the Taqman RNA to CT 1-Step kit (Applied Biosystems). […] Single-plex real-time PCR was performed in triplicates in a StepOne plus RealTime PCR system (Applied Biosystems) and analyzed with the StepOne Software. Fold change was calculated using the 2-DDCT method.

Experiment [2] has as its system SK-OV-3. Description: Single dose tumor cell growth inhibition, Ovarian Cancer SK-OV-3. As to conditions: SK-OV-3, single dose 10 μM. The text has this: (§1) DHL is cytotoxic to various leukemia, colon cancer, CNS cancer and prostate cancer cell lines.
The test system of experiment [3] is NCI/ADR-RES. Description: Single dose tumor cell growth inhibition, Ovarian Cancer NCI/ADR-RES. The settings on record: single dose 10 μM.
Excerpt: as §1

Entries after “also recorded” stand apart in the source; their conditions may differ.

With `C=C1C(=O)O[C@@H]2[C@H]3C(C)=CC(=O)C3=C(C)CC[C@@H]12` [DHL, dehydroleucodine], the “expression of HMOX-1, HSPA1A and HSPH1” value in experiment [1] is “activated the expression of all three target genes in both cell lines; also recorded: more potent than PTL”. Besides, the Percent inhibition in experiment [2] and in experiment [3] was 0.0% in each case.
